# Assays:
# STEME [1] = assay: Post-emergence action against STEME; format: in vivo, Stellaria media; conditions: post-emergence, dosage 80 g/ha
# How it was run: (§1)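 Post-emergence foliar spray on greenhouse plants at the one-leaf stage, using wettable-powder or emulsion-concentrate formulations in water (600 to […], plus 0.2% wetting agent). Damage scored by eye roughly 3 weeks later against untreated plants: 0% = like control, 100% = dead.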
# VERPE [2] = assay: Post-emergence action against VERPE; format: in vivo, Veronica persica; conditions: Veronica persica, 504 h, dosage 80 g/ha
# How it was run: as §1
# VERPE [3] = assay: Pre-emergence action against VERPE; format: in vivo, Veronica persica; conditions: Dosage 320 g/ha, pre-emergence
# How it was run: (§2)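 Seeds sown in sandy loam in wood-fiber pots and covered with soil. Greenhouse growth; visual damage scored after 3 weeks versus untreated controls (100% = dead, 0% = like control).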
# CYPES [4] = assay: Pre-emergence action against CYPES; format: in vivo, Cyperus esculentus; conditions: pre-emergence, dosage 320 g/ha, scored visually after 3 weeks vs untreated controls
# How it was run: as §2
# POLCO [5] = assay: Pre-emergence action against POLCO; format: in vivo, Polygonum convolvulus; conditions: Dosage 320 g/ha, pre-emergence
# How it was run: as §2
# ECHCG [6] = assay: Post-emergence action against ECHCG; format: in vivo, Echinochloa crus-galli; conditions: post-emergence, dosage 80 g/ha, visual assessment about 3 weeks after treatment vs untreated controls
# How it was run: as §1
# SETVI [7] = assay: Pre-emergence action against SETVI; format: in vivo, Setaria viridis; conditions: pre-emergence, dosage 320 g/ha, scored visually after 3 weeks vs untreated controls
# How it was run: as §2
# SETVI [8] = assay: Post-emergence action against SETVI; format: in vivo, Setaria viridis; conditions: post-emergence, dosage 80 g/ha, visual assessment about 3 weeks after treatment vs untreated controls
# How it was run: as §1
# ALOMY = assay: Pre-emergence action against ALOMY; format: in vivo, Alopecurus myosuroides; conditions: dosage 320 g/ha, pre-emergence, scored visually after 3 weeks vs untreated controls, 100% = plants have died, 0% = like control plants
# How it was run: as §2
# MATIN [9] = assay: Pre-emergence action against MATIN; format: in vivo, Matricaria inodora; conditions: Dosage 320 g/ha, pre-emergence
# How it was run: as §2
# AMARE [10] = assay: Pre-emergence action against AMARE; format: in vivo, Amaranthus retroflexus; conditions: pre-emergence, dosage 320 g/ha, scored visually after 3 weeks vs untreated controls
# How it was run: as §2
# ABUTH [11] = assay: Pre-emergence action against ABUTH; format: in vivo, Abutilon theophrasti; conditions: pre-emergence, dosage 320 g/ha, scored visually after 3 weeks vs untreated controls
# How it was run: as §2
# ECHCG [12] = assay: Pre-emergence action against ECHCG; format: in vivo, Echinochloa crus-galli; conditions: pre-emergence, dosage 320 g/ha, scored visually after 3 weeks vs untreated controls
# How it was run: as §2
# AVEFA = assay: Pre-emergence action against AVEFA; format: in vivo, Avena fatua; conditions: dosage 320 g/ha, scored visually after 3 weeks vs untreated controls
# How it was run: as §2
# VIOTR [13] = assay: Post-emergence action against VIOTR; format: in vivo, Viola tricolor; conditions: post-emergence, dosage 80 g/ha
# How it was run: as §1
# ABUTH [14] = assay: Post-emergence action against ABUTH; format: in vivo, Abutilon theophrasti; conditions: post-emergence, dosage 80 g/ha, visual assessment about 3 weeks after treatment vs untreated controls
# How it was run: as §1
# AMARE [15] = assay: Post-emergence action against AMARE; format: in vivo, Amaranthus retroflexus; conditions: post-emergence, dosage 80 g/ha, visual assessment about 3 weeks after treatment vs untreated controls
# How it was run: as §1
# PHBPU = assay: Post-emergence action against PHBPU; format: in vivo, Pharbitis purpurea; conditions: post-emergence, dosage 80 g/ha
# How it was run: as §1
# VIOTR [16] = assay: Pre-emergence action against VIOTR; format: in vivo, Viola tricolor; conditions: Dosage 320 g/ha, pre-emergence
# How it was run: as §2
# LOLMU = assay: Pre-emergence action against LOLMU; format: in vivo, Lolium multiflorum; conditions: dosage 320 g/ha, scored visually after 3 weeks vs untreated controls
# Excerpt: Seeds of monocotyledonous and dicotyledonous weed plants and crop plants are laid out in sandy loam soil in wood-fiber pots and covered with soil. The compounds of the invention, formulated in the form of wettable powders (WP) or as emulsion concentrates (EC), are then applied to the surface of the covering soil in the form of an aqueous suspension or emulsion at a water application rate equating to […], with addition of 0.2% wetting agent. After the treatment, the pots are placed in a greenhouse and kept under good growth conditions for the trial plants. The damage to the test plants is scored visually after a test period of 3 weeks by comparison with untreated controls (herbicidal activity in percent (%): 100% activity=the plants have died, 0% activity=like control plants).
# STEME [17] = assay: Pre-emergence action against STEME; format: in vivo, Stellaria media; conditions: Dosage 320 g/ha, pre-emergence
# How it was run: as §2
# MATIN [18] = assay: Post-emergence action against MATIN; format: in vivo, Matricaria inodora; conditions: post-emergence, dosage 80 g/ha, visual assessment about 3 weeks after treatment vs untreated controls
# How it was run: as §1
# CYPES [19] = assay: Post-emergence action against CYPES; format: in vivo, Cyperus esculentus; conditions: post-emergence, dosage 80 g/ha, visual assessment about 3 weeks after treatment vs untreated controls
# How it was run: as §1
# POLCO [20] = assay: Post-emergence action against POLCO; format: in vivo, Polygonum convolvulus; conditions: post-emergence, dosage 80 g/ha
# How it was run: as §1
structure (smiles),measurement,setting,value
COc1c(C(=O)Nc2nnnn2C)ccc(C(F)(F)F)c1C(C)=O [1-48],pest or weed control at 80 g/ha,"STEME [1]; Stellaria media, 504 h",100%
same,pest or weed control at 80 g/ha,VERPE [2],80%
same,pest or weed control at 320 g/ha,"VERPE [3]; Veronica persica, 504 h",100%
same,pest or weed control at 320 g/ha,"CYPES [4]; Cyperus esculentus, 504 h, read-out: Pre-emergence action against CYPES (herbicidal activity)",90%
same,pest or weed control at 320 g/ha,"POLCO [5]; Fallopia convolvulus, 504 h",90%
same,pest or weed control at 80 g/ha,"ECHCG [6]; Echinochloa crus-galli, 504 h, read-out: Post-emergence action against ECHCG (herbicidal action in percent)",90%
same,pest or weed control at 320 g/ha,"SETVI [7]; Setaria viridis, 504 h, read-out: SETVI (Table B8, pre-emergence herbicidal activity)",100%
same,pest or weed control at 80 g/ha,"SETVI [8]; Setaria viridis, 504 h, read-out: Post-emergence action against SETVI (herbicidal action in percent)",80%
same,pest or weed control at 320 g/ha,"ALOMY; Alopecurus myosuroides, 504 h, read-out: Pre-emergence action against ALOMY (herbicidal activity in percent)",90%
same,pest or weed control at 320 g/ha,"MATIN [9]; Tripleurospermum inodorum, 504 h",100%
same,pest or weed control at 320 g/ha,"AMARE [10]; Amaranthus retroflexus, 504 h, read-out: Pre-emergence action against AMARE (herbicidal activity)",100%
same,pest or weed control at 320 g/ha,"ABUTH [11]; Abutilon theophrasti, 504 h, read-out: Pre-emergence action against ABUTH (herbicidal activity)",100%
same,pest or weed control at 320 g/ha,"ECHCG [12]; Echinochloa crus-galli, 504 h, read-out: Pre-emergence action against ECHCG (herbicidal activity)",100%
same,pest or weed control at 320 g/ha,"AVEFA; Avena fatua, 504 h, read-out: Pre-emergence action against AVEFA (herbicidal activity)",90%
same,pest or weed control at 80 g/ha,"VIOTR [13]; Viola tricolor, 504 h",100%
same,pest or weed control at 80 g/ha,"ABUTH [14]; Abutilon theophrasti, 504 h, read-out: Post-emergence action against ABUTH (herbicidal action in percent)",100%
same,pest or weed control at 80 g/ha,"AMARE [15]; Amaranthus retroflexus, 504 h, read-out: Post-emergence action against AMARE (herbicidal action in percent)",100%
same,pest or weed control at 80 g/ha,"PHBPU; Ipomoea purpurea, 504 h",90%
same,pest or weed control at 320 g/ha,"VIOTR [16]; Viola tricolor, 504 h",100%
same,pest or weed control at 320 g/ha,"LOLMU; Lolium multiflorum, 504 h, read-out: Pre-emergence action against LOLMU (herbicidal activity)",80%
same,pest or weed control at 320 g/ha,"STEME [17]; Stellaria media, 504 h",90%
same,pest or weed control at 80 g/ha,"MATIN [18]; Tripleurospermum inodorum, 504 h, read-out: Post-emergence action against MATIN (herbicidal action in percent)",100%
same,pest or weed control at 80 g/ha,"CYPES [19]; Cyperus esculentus, 504 h, read-out: Post-emergence action against CYPES (herbicidal action in percent)",100%
same,pest or weed control at 80 g/ha,"POLCO [20]; Fallopia convolvulus, 504 h",90%
CCC(=O)c1c(Cl)ccc(C(=O)Nc2nnnn2CC)c1Cl [2-115],Post-emergence action against STEME,STEME [1],100
same,Pre-emergence action against VERPE,VERPE [3],90%
same,Pre-emergence action against CYPES (herbicidal activity),CYPES [4],90%
same,Pre-emergence action against POLCO,POLCO [5],80%
same,Post-emergence action against ECHCG (herbicidal action in percent),ECHCG [6],90%
same,"SETVI (Table B8, pre-emergence herbicidal activity)",SETVI [7],90%
same,Post-emergence action against SETVI (herbicidal action in percent),SETVI [8],90%
same,Pre-emergence action against ALOMY (herbicidal activity in percent),ALOMY,100%
same,Pre-emergence action against MATIN,MATIN [9],100%
same,Pre-emergence action against AMARE (herbicidal activity),AMARE [10],100%
same,Pre-emergence action against ABUTH (herbicidal activity),ABUTH [11],100%
same,Pre-emergence action against ECHCG (herbicidal activity),ECHCG [12],100%
same,Pre-emergence action against AVEFA (herbicidal activity),AVEFA,90%
same,Post-emergence action against VIOTR,VIOTR [13],100
same,Post-emergence action against ABUTH (herbicidal action in percent),ABUTH [14],90%
same,Post-emergence action against AMARE (herbicidal action in percent),AMARE [15],90%
same,Post-emergence action against PHBPU,PHBPU,90
same,Pre-emergence action against VIOTR,VIOTR [16],100%
same,Pre-emergence action against LOLMU (herbicidal activity),LOLMU,100%
same,Pre-emergence action against STEME,STEME [17],100%
same,Post-emergence action against MATIN (herbicidal action in percent),MATIN [18],100%
same,Post-emergence action against CYPES (herbicidal action in percent),CYPES [19],80%
same,Post-emergence action against POLCO,POLCO [20],100

# Reference: patent publication US11051515B2, “3-acyl-benzamides and their use as herbicides” (Bayer Aktiengesellschaft, priority 2017, dated 2021)
